According to patent US20200270309A1, “MALEIMIDE GROUP-MODIFIED ANGIOGENESIS INHIBITOR HM-1 AND USE THEREOF” (NANJING ANJI BIOLOGICAL TECHNOLOGY CO., LTD, priority 2017, published 2020):
Marks after values point to notes of the source that are not given here. Peptide text beside a SMILES is read from it. * marks the point of attachment. X65 = O=C1C=CC(=O)N1c1cccc(CCCCCCCCCCCCC(=O)*)c1; X58 = O=C1C=CC(=O)N1c1cccc(CCCCCCCCCCCC(=O)*)c1; X74 = O=C1C=CC(=O)N1c1cccc(CCCCCCCCCCC(=O)*)c1; X64 = O=C1C=CC(=O)N1c1cccc(CCCCCCCCCC(=O)*)c1; X59 = O=C1C=CC(=O)N1c1cccc(CCCCCCCCC(=O)*)c1; X66 = O=C1C=CC(=O)N1c1cccc(CCCCCCCC(=O)*)c1; X54 = O=C1C=CC(=O)N1c1cccc(CCCCCCC(=O)*)c1; X71 = O=C1C=CC(=O)N1c1cccc(CCCCCC(=O)*)c1; X46 = O=C1C=CC(=O)N1c1cccc(CCCCC(=O)*)c1

What was measured:
[1] = Half-lives and pharmacokinetic parameters of polypeptides vs HM-1; details: in vivo; for half-life: T1/2β (half-life)
[2] = system: corneal neovascularization; test: Corneal neovascularization induced by alkali burn in BALB/c mice; type: in vivo; parameters: Inhibition rate (corneal neovascularization): concentration or dose not given beside the values; details: day 14 after alkali burn, vitreous injection once a day for 1 week
[3] = system: retinal neovascularization (OIR model); test: Retinal vessels in OIR mice; type: in vivo, C57/B16 mice; details: for Area of neovascular plexus (mm^2): dose 0.05 μM in the vitreous chamber on day 13, retinal vessels evaluated on day 17; for Inhibition rate (%): dose 0.05 μM in the vitreous chamber on day 13, retinal vessels evaluated on day 17, vs negative control
Excerpt: Establishment of an OIR model: Young mice and their mothers were exposed in a 75% hyperoxic environment from day 7 to day 12 after the birth of C57/B16 mice, which caused capillaries in their central retina to disappear rapidly. The mice were returned to the indoor air on day 12, retinal vessels exposed to hyperoxia quickly disappeared, causing extensive abnormal neoangiogenesis, and the central part of the retina remained largely avascular for a long time. After the blood vessels disappeared completely, the mice were injected with normal saline (a negative group), X1-X12, X13-X44, X45-X90 in the vitreous chamber on day 13 respectively, and retinal vessels were evaluated on day 17 ([…] of Texas red labeled tomato agglutinin was injected into the left ventricle to mark unclosed vessels and circulated for 5 min).

| Structure (SMILES) | AUC(0-inf) [1] [ng·h/mL] | MRT inf [1] [h] | clearance [1] [mL/min/kg] | half-life [1] [h] | Inhibition rate (corneal neovascularization) [2] [%] | MVD (corneal microvessel density) [2] | Area of neovascular plexus (mm^2) [3] [mm^2] | Inhibition rate (%) [3] |
| --- | --- | --- | --- | --- | --- | --- | --- | --- |
| C[C@H](NC(=O)CNC(=O)[C@H](CCCNC(=N)N)NC(=O)CCCCc1cccc(N2C(=O)C=CC2=O)c1)C(=O)N[C@@H](CC(=O)O)C(=O)N[C@@H](CCCNC(=N)N)C(=O)N[C@@H](C)C(=O)NCC(=O)NCC(=O)NCC(=O)NCC(=O)N[C@@H](CCCNC(=N)N)C(=O)NCC(=O)N[C@@H](CC(=O)O)C(=O)O [X28] (X46-RGADRAGGGGRGD-OH) | 25100 ± 7920 | 45 ± 13 | 0.663 | 31.19 ± 0.26 | 46.59 | 35.91 ± 4.891 | 0.088 ± 0.004 | 58.49%** |
| C[C@H](NC(=O)CNC(=O)[C@H](CCCNC(=N)N)NC(=O)CCCCCc1cccc(N2C(=O)C=CC2=O)c1)C(=O)N[C@@H](CC(=O)O)C(=O)N[C@@H](CCCNC(=N)N)C(=O)N[C@@H](C)C(=O)NCC(=O)NCC(=O)NCC(=O)NCC(=O)N[C@@H](CCCNC(=N)N)C(=O)NCC(=O)N[C@@H](CC(=O)O)C(=O)O [X29] (X71-RGADRAGGGGRGD-OH) | 32200 ± 8030 | 57.6 ± 10.6 | 0.518 | 39.91 ± 0.25 | 54.98 | 30.27 ± 4.918 | 0.109 ± 0.012 | 48.58%* |
| C[C@H](NC(=O)CNC(=O)[C@H](CCCNC(=N)N)NC(=O)CCCCCCc1cccc(N2C(=O)C=CC2=O)c1)C(=O)N[C@@H](CC(=O)O)C(=O)N[C@@H](CCCNC(=N)N)C(=O)N[C@@H](C)C(=O)NCC(=O)NCC(=O)NCC(=O)NCC(=O)N[C@@H](CCCNC(=N)N)C(=O)NCC(=O)N[C@@H](CC(=O)O)C(=O)O [X30] (X54-RGADRAGGGGRGD-OH) | 28300 ± 6880 | 50.8 ± 10.3 | 0.588 | 35.2 ± 0.37 | 47.13 | 35.55 ± 5.717 | 0.118 ± 0.012 | 44.34%* |
| C[C@H](NC(=O)CNC(=O)[C@H](CCCNC(=N)N)NC(=O)CCCCCCCc1cccc(N2C(=O)C=CC2=O)c1)C(=O)N[C@@H](CC(=O)O)C(=O)N[C@@H](CCCNC(=N)N)C(=O)N[C@@H](C)C(=O)NCC(=O)NCC(=O)NCC(=O)NCC(=O)N[C@@H](CCCNC(=N)N)C(=O)NCC(=O)N[C@@H](CC(=O)O)C(=O)O [X31] (X66-RGADRAGGGGRGD-OH) | 28600 ± 6960 | 51.3 ± 11.3 | 0.582 | 35.58 ± 0.31 | 45.42 | 36.70 ± 5.505 | 0.101 ± 0.013 | 52.83%** |
| C[C@H](NC(=O)CNC(=O)[C@H](CCCNC(=N)N)NC(=O)CCCCCCCCc1cccc(N2C(=O)C=CC2=O)c1)C(=O)N[C@@H](CC(=O)O)C(=O)N[C@@H](CCCNC(=N)N)C(=O)N[C@@H](C)C(=O)NCC(=O)NCC(=O)NCC(=O)NCC(=O)N[C@@H](CCCNC(=N)N)C(=O)NCC(=O)N[C@@H](CC(=O)O)C(=O)O [X32] (X59-RGADRAGGGGRGD-OH) | 30900 ± 7750 | 55.3 ± 11.8 | 0.54 | 38.33 ± 0.31 | 50.25 | 33.45 ± 6.453 | 0.096 ± 0.001 | 54.72%** |
| C[C@H](NC(=O)CNC(=O)[C@H](CCCNC(=N)N)NC(=O)CCCCCCCCCc1cccc(N2C(=O)C=CC2=O)c1)C(=O)N[C@@H](CC(=O)O)C(=O)N[C@@H](CCCNC(=N)N)C(=O)N[C@@H](C)C(=O)NCC(=O)NCC(=O)NCC(=O)NCC(=O)N[C@@H](CCCNC(=N)N)C(=O)NCC(=O)N[C@@H](CC(=O)O)C(=O)O [X33] (X64-RGADRAGGGGRGD-OH) | 34000 ± 7620 | 60.8 ± 12 | 0.49 | 42.15 ± 0.26 | 47.20 | 35.50 ± 3.223 | 0.089 ± 0.029 | 58.02%** |
| C[C@H](NC(=O)CNC(=O)[C@H](CCCNC(=N)N)NC(=O)CCCCCCCCCCc1cccc(N2C(=O)C=CC2=O)c1)C(=O)N[C@@H](CC(=O)O)C(=O)N[C@@H](CCCNC(=N)N)C(=O)N[C@@H](C)C(=O)NCC(=O)NCC(=O)NCC(=O)NCC(=O)N[C@@H](CCCNC(=N)N)C(=O)NCC(=O)N[C@@H](CC(=O)O)C(=O)O [X34] (X74-RGADRAGGGGRGD-OH) | 27700 ± 8150 | 49.6 ± 10.2 | 0.602 | 34.35 ± 0.26 | 48.36 | 34.72 ± 6.051 | 0.120 ± 0.014 | 43.40%* |
| C[C@H](NC(=O)CNC(=O)[C@H](CCCNC(=N)N)NC(=O)CCCCCCCCCCCc1cccc(N2C(=O)C=CC2=O)c1)C(=O)N[C@@H](CC(=O)O)C(=O)N[C@@H](CCCNC(=N)N)C(=O)N[C@@H](C)C(=O)NCC(=O)NCC(=O)NCC(=O)NCC(=O)N[C@@H](CCCNC(=N)N)C(=O)NCC(=O)N[C@@H](CC(=O)O)C(=O)O [X35] (X58-RGADRAGGGGRGD-OH) | 32000 ± 8090 | 57.1 ± 14.2 | 0.522 | 39.6 ± 0.31 | 44.60 | 37.25 ± 4.806 | 0.101 ± 0.005 | 52.36%** |
| C[C@H](NC(=O)CNC(=O)[C@H](CCCNC(=N)N)NC(=O)CCCCCCCCCCCCc1cccc(N2C(=O)C=CC2=O)c1)C(=O)N[C@@H](CC(=O)O)C(=O)N[C@@H](CCCNC(=N)N)C(=O)N[C@@H](C)C(=O)NCC(=O)NCC(=O)NCC(=O)NCC(=O)N[C@@H](CCCNC(=N)N)C(=O)NCC(=O)N[C@@H](CC(=O)O)C(=O)O [X36] (X65-RGADRAGGGGRGD-OH) | 28200 ± 8090 | 50.4 ± 10.1 | 0.592 | 34.9 ± 0.27 | 45.52 | 36.63 ± 5.284 | 0.084 ± 0.009 | 60.38%** |
